Reference: patent US4258034A, “Lactobionic acid poly(H-sulfate) and salts thereof useful as complement inhibitors” (American Cyanamid Company, priority 1979, dated 1981)
Where a name gives a salt, the structure may show the parent alone.

Tests used:
Conditions in all cases: activity in wells, twofold serial dilution assay; higher well number indicates higher activity
activated human C1 = experiment: Test Code 026 (C1 inhibitor); type: biochemical
Text: (§1) An active inhibitor protects C2 from C1 and C4; (ii) Test Code 035 (C3-C9 inhibitor)--This test determines the ability of the late components of human complement (C3-C9) to lyse EAC 142 in the presence of appropriate dilutions of the test compound. An active inhibitor protects EAC 142 from lysis by human C3-C9; (iii) Test Code 036 (C-Shunt inhibitor)--In this test human erythrocytes rendered fragile are lysed in autologous serum via the shunt pathway activated by cobra venom factor in the presence of appropriate dilutions of the test compound. Inhibition of the shunt pathway results in failure of lysis; (iv) Forssman Vasculitis Test--Here, the well known complement dependent lesion, Forssman vasculitis, is produced in guinea pigs by intradermal injection of rabbit anti-Forssman antiserum. […]

[1] = system: late components of human complement (C3-C9); experiment: Test Code 035 (C3-C9 inhibitor), lysis of EAC 142; type: biochemical
Text: as §1

shunt pathway = experiment: Test Code 036 (C-Shunt inhibitor), lysis of fragile human erythrocytes in autologous serum, cobra venom factor activated; type: cell-based
Text: as §1

SMILES	C1 026 Wells (activated human C1) [Wells]	C-Late 035 Wells [1] [Wells]	Shunt Inhibition 036 Wells (shunt pathway) [Wells]
O=C(O)[C@H](OS(=O)(=O)O)[C@@H](OS(=O)(=O)O)[C@H](O[C@@H]1O[C@H](COS(=O)(=O)O)[C@H](OS(=O)(=O)O)[C@H](OS(=O)(=O)O)[C@H]1OS(=O)(=O)O)[C@@H](COS(=O)(=O)O)OS(=O)(=O)O [Lactobionic acid, octakis (H-sulfate) nonasodium salt] [Lactobionic acid, octakis (H-sulfate), nonasodium salt]	8	2	5
O=C(O)[C@H](OS(=O)(=O)O)[C@@H](OS(=O)(=O)O)[C@H](O[C@@H]1O[C@H](COS(=O)(=O)O)[C@H](OS(=O)(=O)O)[C@H](OS(=O)(=O)O)[C@H]1OS(=O)(=O)O)[C@@H](COS(=O)(=O)O)OS(=O)(=O)O [Lactobionic acid, octakis (H-sulfate), nonatrimethylamine sa] [Lactobionic acid, octakis (H-sulfate), nonatrimethylamine salt]	8	2	4
